Numbers after ± are expanded uncertainties.
Test: xn = mol fraction of the nth substance listed
Settings: Gas, Buoyancy - hydrostatic balance with magnetic suspension - one sinker

SMILES: [HH] [hydrogen] + N#N
- mass density (274.99 K, 14000 kPa, x2 = 0.95): 162.308 ± 0.071 kg/m3
- mass density (274.99 K, 14998 kPa, x2 = 0.5001): 91.878 ± 0.046 kg/m3
- mass density (274.99 K, 15002 kPa, x2 = 0.95): 173.076 ± 0.072 kg/m3
- mass density (274.99 K, 16011 kPa, x2 = 0.95): 183.72 ± 0.072 kg/m3
- mass density (274.99 K, 17006 kPa, x2 = 0.95): 194.006 ± 0.072 kg/m3
- mass density (275 K, 13999 kPa, x2 = 0.9): 153.123 ± 0.068 kg/m3
- mass density (275 K, 15005 kPa, x2 = 0.9): 163.298 ± 0.068 kg/m3
- mass density (275 K, 15997 kPa, x2 = 0.5001): 97.397 ± 0.046 kg/m3
- mass density (275 K, 16004 kPa, x2 = 0.9): 173.22 ± 0.069 kg/m3
- mass density (275 K, 17000 kPa, x2 = 0.5001): 102.851 ± 0.046 kg/m3
- mass density (275 K, 17005 kPa, x2 = 0.9): 182.969 ± 0.069 kg/m3
- mass density (275 K, 17996 kPa, x2 = 0.5001): 108.187 ± 0.047 kg/m3
- mass density (275 K, 18001 kPa, x2 = 0.95): 204.074 ± 0.072 kg/m3
- mass density (275 K, 18013 kPa, x2 = 0.9): 192.591 ± 0.069 kg/m3
- mass density (275 K, 19000 kPa, x2 = 0.5001): 113.476 ± 0.047 kg/m3
- mass density (275 K, 19012 kPa, x2 = 0.9): 201.918 ± 0.07 kg/m3
- mass density (275 K, 19017 kPa, x2 = 0.95): 214.131 ± 0.073 kg/m3
- mass density (275 K, 19574 kPa, x2 = 0.5001): 116.461 ± 0.051 kg/m3
- mass density (275 K, 19891 kPa, x2 = 0.9): 209.964 ± 0.073 kg/m3
- mass density (275 K, 20152 kPa, x2 = 0.95): 225.084 ± 0.077 kg/m3
- mass density (299.93 K, 997 kPa, x2 = 0.95): 10.683 ± 0.059 kg/m3
- mass density (299.93 K, 998 kPa, x2 = 0.9): 10.171 ± 0.056 kg/m3
- mass density (299.93 K, 1999 kPa, x2 = 0.9): 20.375 ± 0.057 kg/m3
- mass density (299.93 K, 2984 kPa, x2 = 0.9): 30.399 ± 0.058 kg/m3
- mass density (299.93 K, 3997 kPa, x2 = 0.9): 40.678 ± 0.058 kg/m3
- mass density (299.93 K, 4997 kPa, x2 = 0.9): 50.784 ± 0.059 kg/m3
- mass density (299.93 K, 5997 kPa, x2 = 0.9): 60.838 ± 0.059 kg/m3
- mass density (299.93 K, 6998 kPa, x2 = 0.9): 70.842 ± 0.059 kg/m3
- mass density (299.93 K, 7998 kPa, x2 = 0.9): 80.755 ± 0.06 kg/m3
- mass density (299.93 K, 8998 kPa, x2 = 0.9): 90.589 ± 0.061 kg/m3
- mass density (299.93 K, 9998 kPa, x2 = 0.9): 100.316 ± 0.061 kg/m3
- mass density (299.93 K, 10998 kPa, x2 = 0.9): 109.939 ± 0.061 kg/m3
- mass density (299.93 K, 11999 kPa, x2 = 0.9): 119.448 ± 0.062 kg/m3
- mass density (299.93 K, 12999 kPa, x2 = 0.9): 128.823 ± 0.062 kg/m3
- mass density (299.93 K, 14000 kPa, x2 = 0.9): 138.079 ± 0.063 kg/m3
- mass density (299.93 K, 14998 kPa, x2 = 0.9): 147.162 ± 0.063 kg/m3
- mass density (299.93 K, 16001 kPa, x2 = 0.9): 156.149 ± 0.063 kg/m3
- mass density (299.93 K, 17004 kPa, x2 = 0.9): 164.981 ± 0.064 kg/m3
- mass density (299.93 K, 18004 kPa, x2 = 0.9): 173.629 ± 0.064 kg/m3
- mass density (299.93 K, 19002 kPa, x2 = 0.9): 182.11 ± 0.066 kg/m3
- mass density (299.93 K, 19557 kPa, x2 = 0.9): 186.761 ± 0.074 kg/m3
- mass density (299.94 K, 998 kPa, x2 = 0.5001): 5.984 ± 0.038 kg/m3
- mass density (299.94 K, 1998 kPa, x2 = 0.5001): 11.937 ± 0.039 kg/m3
- mass density (299.94 K, 1998 kPa, x2 = 0.95): 21.43 ± 0.06 kg/m3
- mass density (299.94 K, 2984 kPa, x2 = 0.95): 32.013 ± 0.06 kg/m3
- mass density (299.94 K, 2999 kPa, x2 = 0.5001): 17.846 ± 0.039 kg/m3
- mass density (299.94 K, 3997 kPa, x2 = 0.95): 42.862 ± 0.061 kg/m3
- mass density (299.94 K, 3998 kPa, x2 = 0.5001): 23.691 ± 0.039 kg/m3
- mass density (299.94 K, 4997 kPa, x2 = 0.95): 53.549 ± 0.061 kg/m3
- mass density (299.94 K, 4998 kPa, x2 = 0.5001): 29.485 ± 0.04 kg/m3
- mass density (299.94 K, 5998 kPa, x2 = 0.5001): 35.223 ± 0.04 kg/m3
- mass density (299.94 K, 5998 kPa, x2 = 0.95): 64.189 ± 0.062 kg/m3
- mass density (299.94 K, 6997 kPa, x2 = 0.5001): 40.897 ± 0.04 kg/m3
- mass density (299.94 K, 6999 kPa, x2 = 0.95): 74.769 ± 0.062 kg/m3
- mass density (299.94 K, 7997 kPa, x2 = 0.5001): 46.51 ± 0.041 kg/m3
- mass density (299.94 K, 7999 kPa, x2 = 0.95): 85.271 ± 0.063 kg/m3
- mass density (299.94 K, 8996 kPa, x2 = 0.5001): 52.057 ± 0.041 kg/m3
- mass density (299.94 K, 9000 kPa, x2 = 0.95): 95.695 ± 0.063 kg/m3
- mass density (299.94 K, 9998 kPa, x2 = 0.5001): 57.555 ± 0.041 kg/m3
- mass density (299.94 K, 10000 kPa, x2 = 0.95): 106.004 ± 0.064 kg/m3
- mass density (299.94 K, 10997 kPa, x2 = 0.5001): 62.968 ± 0.041 kg/m3
- mass density (299.94 K, 10999 kPa, x2 = 0.95): 116.189 ± 0.064 kg/m3
- mass density (299.94 K, 11998 kPa, x2 = 0.5001): 68.317 ± 0.042 kg/m3
- mass density (299.94 K, 12000 kPa, x2 = 0.95): 126.269 ± 0.065 kg/m3
- mass density (299.94 K, 12994 kPa, x2 = 0.5001): 73.577 ± 0.043 kg/m3
- mass density (299.94 K, 13002 kPa, x2 = 0.95): 136.232 ± 0.065 kg/m3
- mass density (299.94 K, 13996 kPa, x2 = 0.5001): 78.8 ± 0.043 kg/m3
- mass density (299.94 K, 14000 kPa, x2 = 0.95): 146.008 ± 0.066 kg/m3
- mass density (299.94 K, 14998 kPa, x2 = 0.5001): 83.948 ± 0.043 kg/m3
- mass density (299.94 K, 14999 kPa, x2 = 0.95): 155.65 ± 0.066 kg/m3
- mass density (299.94 K, 15992 kPa, x2 = 0.5001): 88.984 ± 0.043 kg/m3
- mass density (299.94 K, 16000 kPa, x2 = 0.95): 165.148 ± 0.066 kg/m3
- mass density (299.94 K, 16992 kPa, x2 = 0.5001): 93.982 ± 0.044 kg/m3
- mass density (299.94 K, 17005 kPa, x2 = 0.95): 174.51 ± 0.067 kg/m3
- mass density (299.94 K, 17997 kPa, x2 = 0.5001): 98.934 ± 0.044 kg/m3
- mass density (299.94 K, 18000 kPa, x2 = 0.95): 183.626 ± 0.067 kg/m3
- mass density (299.94 K, 18998 kPa, x2 = 0.5001): 103.792 ± 0.045 kg/m3
- mass density (299.94 K, 19003 kPa, x2 = 0.95): 192.638 ± 0.068 kg/m3
- mass density (299.94 K, 19854 kPa, x2 = 0.5001): 107.886 ± 0.046 kg/m3
- mass density (299.94 K, 19889 kPa, x2 = 0.95): 200.449 ± 0.075 kg/m3
- mass density (324.94 K, 12002 kPa, x2 = 0.95): 115.15 ± 0.06 kg/m3
- mass density (324.94 K, 14997 kPa, x2 = 0.95): 141.813 ± 0.061 kg/m3
- mass density (324.94 K, 15998 kPa, x2 = 0.95): 150.466 ± 0.062 kg/m3
- mass density (324.94 K, 16993 kPa, x2 = 0.95): 158.937 ± 0.062 kg/m3
- mass density (324.94 K, 17986 kPa, x2 = 0.95): 167.256 ± 0.062 kg/m3
- mass density (324.94 K, 19001 kPa, x2 = 0.95): 175.603 ± 0.063 kg/m3
- mass density (324.94 K, 19731 kPa, x2 = 0.9): 171.908 ± 0.065 kg/m3
- mass density (324.94 K, 19880 kPa, x2 = 0.95): 182.728 ± 0.068 kg/m3
- mass density (324.95 K, 998 kPa, x2 = 0.5001): 5.527 ± 0.036 kg/m3
- mass density (324.95 K, 998 kPa, x2 = 0.9): 9.371 ± 0.053 kg/m3
- mass density (324.95 K, 998 kPa, x2 = 0.95): 9.855 ± 0.055 kg/m3
- mass density (324.95 K, 1998 kPa, x2 = 0.5001): 11.018 ± 0.037 kg/m3
- mass density (324.95 K, 1998 kPa, x2 = 0.95): 19.717 ± 0.055 kg/m3
- mass density (324.95 K, 1999 kPa, x2 = 0.9): 18.75 ± 0.053 kg/m3
- mass density (324.95 K, 2983 kPa, x2 = 0.9): 27.94 ± 0.054 kg/m3
- mass density (324.95 K, 2984 kPa, x2 = 0.95): 29.414 ± 0.056 kg/m3
- mass density (324.95 K, 2996 kPa, x2 = 0.5001): 16.446 ± 0.037 kg/m3
- mass density (324.95 K, 3997 kPa, x2 = 0.95): 39.338 ± 0.057 kg/m3
- mass density (324.95 K, 3999 kPa, x2 = 0.5001): 21.856 ± 0.038 kg/m3
- mass density (324.95 K, 3999 kPa, x2 = 0.9): 37.374 ± 0.054 kg/m3
